Assay results reported in PMC8653674, “Design, Synthesis, Docking Study and Biological Evaluation of 4-Hydroxy-2H-benzo[e][1,2]thiazine-3-carboxamide 1,1-dioxide Derivatives as Anti-HIV Agents” (Iranian Journal of Pharmaceutical Research : IJPR, 2021).
Like-named read-outs stand apart in the source and are kept apart here.

Key:
[1] = tested on: single-cycle replicable HIV NL4-3 virions in Hela cells; assay: single cycle HIV-1 replication assay (inhibition of p24 expression, capture ELISA); type: cell-based
Protocol: (§1) The anti-HIV-1 activity of target compounds was evaluated in a single cycle replication assay evaluated in our laboratory and reported previously. In this assay, the single-cycle replicable HIV NL4-3 virions (200 ng p24) were inoculated concurrently with compounds in different concentrations to the Hela cells. The inhibition rate (%) of p24 expression was measured by capture ELISA (Biomerieux, France) 72 hours after inoculation. Percentage inhibition of p24 expression in treated culture was calculated as inhibition rate of p24 (%). The XTT (sodium3-[1(phenylaminocarbonyl)-3,4-tetrazolium]-bis(4-methoxy-6-nitro)benzene sulfonic acid) proliferation assay was conducted to evaluate the cellular toxicity according to the kit instructions. The cytotoxic concentration that reduced the number of viable cells by 50% (CC50) was calculated after the determination of p24 load in the HIV-1 replication assay plates ([37]-[40]).
(§2) Fourteen 1,2-benzothiazine-3-carboxamide 1,1-dioxide derivatives containing different substituents at N-2 positions (12 and 13a-m) were synthesized and evaluated to inhibit the single-cycle HIV replication inhibition HeLa cell culture. Cytotoxicity of compounds was also tested in the same cell line to ensure the safety of compounds. Raltegravir was used as a positive control. Anti-HIV activity and cytotoxicity of compounds were expressed as EC50 and CC50, respectively. Selectivity Index (SI) was calculated using CC50/EC50 ratio.

[2] = tested on: Hela cells; assay: XTT proliferation assay for cellular toxicity; type: cell-based
Protocol: as §1, §2

[3] = XTT proliferation assay for cellular toxicity; type: cell-based; details: human; cytotoxicity in Hela cells, XTT
Protocol: as §1, §2

[4] = tested on: single-cycle replicable HIV NL4-3 virions in Hela cells; parameters: method as in previously reported (b6); details: piroxicam value in Table 1, said in b54 to be previously reported; ref previously reported (b6); cited from earlier work
[5] = Human immunodeficiency virus 1, NL43, HeLa, 72 h

2-(3,4-Dichlorobenzyl)-4-hydroxy-2H-benzo[e][1,2]thiazine-3-carboxamide 1,1-dioxide [Compound 13i]
EC50 ([1]; anti-HIV activity, single-cycle HIV NL4-3 in Hela cells, p24 at 72 hours, read-out: EC50): 110 µM | CC50 [2]: 510 µM

NC(=O)C1=C(O)c2ccccc2S(=O)(=O)N1 [Compound 12, 4-hydroxy-2H-benzo[e][1,2]thiazine-3-carboxamide 1,1-dioxide]
EC50 [1, 5]: 105 µM | melting point: 244 °C (dec.) | CC50 at 72 h [3]: 950 µM

CCN1C(C(N)=O)=C(O)c2ccccc2S1(=O)=O [Compound 13a, 2-Ethyl-4-hydroxy-2H-benzo[e][1,2]thiazine-3-carboxamide 1,1-dioxide]
EC50 [1, 5]: 80 µM | CC50 at 72 h [3]: 550 µM

NC(=O)C1=C(O)c2ccccc2S(=O)(=O)N1CC1CCCCC1 [Compound 13b, 2-(Cyclohexylmethyl)-4-hydroxy-2H-benzo[e][1,2]thiazine-3-carboxamide 1,1-dioxide]
EC50 [1, 5]: 100 µM | melting point: 263 to 264 °C | CC50 at 72 h [3]: 400 µM

NC(=O)C1=C(O)c2ccccc2S(=O)(=O)N1Cc1ccccc1 [Compound 13c, 2-Benzyl-4-hydroxy-2H-benzo[e][1,2]thiazine-3-carboxamide 1,1-dioxide]
EC50 [1, 5]: 45 µM | melting point: 270 to 275 °C | CC50 at 72 h [3]: 600 µM

Cc1ccc(CN2C(C(N)=O)=C(O)c3ccccc3S2(=O)=O)cc1 [Compound 13d, 4-Hydroxy-2-(4-methylbenzyl)-2H-benzo[e][1,2]thiazine-3-carboxamide 1,1-dioxide]
EC50 [1, 5]: 25 µM | CC50 at 72 h [3]: 680 µM

Cc1ccccc1CN1C(C(N)=O)=C(O)c2ccccc2S1(=O)=O [Compound 13e, 4-Hydroxy-2-(2-methylbenzyl)-2H-benzo[e][1,2]thiazine-3-carboxamide 1,1-dioxide]
EC50 [1, 5]: 55 µM | melting point: 268 to 271 °C | CC50 at 72 h [3]: 650 µM

COc1cccc(CN2C(C(N)=O)=C(O)c3ccccc3S2(=O)=O)c1 [Compound 13f, 4-Hydroxy-2-(3-methoxybenzyl)-2H-benzo[e][1,2]thiazine-3-carboxamide 1,1-dioxide]
EC50 [1, 5]: 50 µM | melting point: 273 to 275 °C | CC50 at 72 h [3]: 640 µM

NC(=O)C1=C(O)c2ccccc2S(=O)(=O)N1Cc1ccccc1Cl [Compound 13g, 2-(2-Chlorobenzyl)-4-hydroxy-2H-benzo[e][1,2]thiazine-3-carboxamide 1,1-dioxide]
EC50 [1, 5]: 40 µM | CC50 at 72 h [3]: 650 µM

NC(=O)C1=C(O)c2ccccc2S(=O)(=O)N1Cc1ccc(Cl)cc1 [Compound 13h, 2-(4-Chlorobenzyl)-4-hydroxy-2H-benzo[e][1,2]thiazine-3-carboxamide 1,1-dioxide]
EC50 [1, 5]: 55 µM | CC50 at 72 h [3]: 610 µM

NC(=O)C1=C(O)c2ccccc2S(=O)(=O)N1Cc1ccccc1F [Compound 13j, 2-(2-Fluorobenzyl)-4-hydroxy-2H-benzo[e][1,2]thiazine-3-carboxamide 1,1-dioxide]
EC50 [1, 5]: 35 µM | melting point: 268 to 273 °C | CC50 at 72 h [3]: 680 µM

NC(=O)C1=C(O)c2ccccc2S(=O)(=O)N1Cc1cccc(F)c1 [Compound 13k, 2-(3-Fluorobenzyl)-4-hydroxy-2H-benzo[e][1,2]thiazine-3-carboxamide 1,1-dioxide]
EC50 [1, 5]: 60 µM | melting point: 271 to 275 °C | CC50 at 72 h [3]: 550 µM

NC(=O)C1=C(O)c2ccccc2S(=O)(=O)N1Cc1ccc(F)cc1 [Compound 13l, 2-(4-Fluorobenzyl)-4-hydroxy-2H-benzo[e][1,2]thiazine-3-carboxamide 1,1-dioxide]
EC50 [1, 5]: 20 µM | CC50 at 72 h [3]: 650 µM

NC(=O)C1=C(O)c2ccccc2S(=O)(=O)N1Cc1ccc([N+](=O)[O-])cc1 [Compound 13m, 4-Hydroxy-2-(4-nitrobenzyl)-2H-benzo[e][1,2]thiazine-3-carboxamide 1,1-dioxide]
EC50 [1, 5]: 25 µM | melting point: 288 °C (dec.) | CC50 at 72 h [3]: 650 µM

CN1C(C(=O)Nc2ccccn2)=C(O)c2ccccc2S1(=O)=O [Piroxicam, piroxicam, reference compound]
EC50 [4]: 120 µM | CC50 at 72 h [3]: 900 µM

Cc1nnc(C(=O)NC(C)(C)c2nc(C(=O)NCc3ccc(F)cc3)c(O)c(=O)n2C)o1 [Raltegravir, raltegravir, reference compound]
EC50 [1, 5]: 0.9 µM | CC50 at 72 h [3]: > 500 µM
